Measurements published in ChEMBL document CHEMBL1135802, “Pyrrolo[1,3]benzothiazepine-based atypical antipsychotic agents. Synthesis, structure-activity relationship, molecular modeling, and biological studies” (J Med Chem, 2002).

Experiments:
[1] = biological target: T1, D(3) dopamine receptor (Rattus norvegicus, UniProt P19020); design: species or system Tissue
Description: Half-maximal inhibition of [3H]-7-OH-DPAT binding to Dopamine receptor D3 in rat tissue homogenate

[2] = biological target: T2, D(1A) dopamine receptor (Rattus norvegicus, UniProt P18901)
[3] = species: Rattus norvegicus; conditions: in vivo
Description: Area under curve (AUC) value of HVA level after first treatment (7.4 uM/Kg) in dialysates collected from rat striatum.

[4] = species: Rattus norvegicus; conditions: in vivo; remark: listed apart in the source
Description: Area under curve (AUC) value of DOPAC level after total treatment in dialysates collected from rat striatum.

[5] = species: Rattus norvegicus; conditions: in vivo; remark: listed apart in the source
Description: Area under curve (AUC) value of Dopamine level after total treatment in dialysates collected from rat striatum.

[6] = species: Mus musculus; assay: animal or person; format: functional; conditions: route oral
[7] = biological target: T3, Muscarinic acetylcholine receptor M1 (Rattus norvegicus, UniProt P08482); assay: biochemical; format: tissue-based, Frontal cortex
T3 sequence (P08482 whole entry): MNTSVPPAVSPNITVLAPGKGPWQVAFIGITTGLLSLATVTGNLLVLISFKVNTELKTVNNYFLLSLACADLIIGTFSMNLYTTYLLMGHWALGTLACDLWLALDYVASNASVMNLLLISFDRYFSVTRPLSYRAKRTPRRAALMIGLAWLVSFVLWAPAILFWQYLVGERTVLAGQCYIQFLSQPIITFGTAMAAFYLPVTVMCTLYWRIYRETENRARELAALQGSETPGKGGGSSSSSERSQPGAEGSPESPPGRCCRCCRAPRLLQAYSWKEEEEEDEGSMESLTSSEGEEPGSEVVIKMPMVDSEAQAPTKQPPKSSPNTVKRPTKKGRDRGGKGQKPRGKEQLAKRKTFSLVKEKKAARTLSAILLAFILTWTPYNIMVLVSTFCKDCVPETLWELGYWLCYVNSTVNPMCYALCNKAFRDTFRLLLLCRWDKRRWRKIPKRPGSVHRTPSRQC
Description: Half-maximal inhibition of [3H]QNB binding to Muscarinic acetylcholine receptor M1 in rat frontal cortex homogenate

[8] = species: Rattus norvegicus; conditions: in vivo; remark: listed apart in the source
Description: Area under curve (AUC) value of DOPAC level after first treatment (7.4 uM/Kg) in dialysates collected from rat striatum.

[9] = species: Mus musculus; assay: animal or person; format: functional; conditions: po
[10] = biological target: T4, Adrenergic receptor alpha-2 (Rattus norvegicus, UniProt P22086+P19328+P22909); format: tissue-based, Frontal cortex
T4 sequence (P22086 whole entry): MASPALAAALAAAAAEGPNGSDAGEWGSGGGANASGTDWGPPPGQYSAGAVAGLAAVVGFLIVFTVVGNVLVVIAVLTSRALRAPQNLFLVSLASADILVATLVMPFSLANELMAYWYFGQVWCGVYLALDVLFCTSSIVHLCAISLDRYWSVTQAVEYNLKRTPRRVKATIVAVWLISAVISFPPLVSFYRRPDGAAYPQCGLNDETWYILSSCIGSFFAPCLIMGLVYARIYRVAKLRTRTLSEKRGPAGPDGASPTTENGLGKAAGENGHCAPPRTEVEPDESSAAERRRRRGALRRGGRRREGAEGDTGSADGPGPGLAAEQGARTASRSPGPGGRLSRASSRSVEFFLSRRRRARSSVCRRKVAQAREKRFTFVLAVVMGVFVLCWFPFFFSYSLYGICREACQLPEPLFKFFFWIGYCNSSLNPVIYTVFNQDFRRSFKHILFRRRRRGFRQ
T4 sequence (P19328 whole entry): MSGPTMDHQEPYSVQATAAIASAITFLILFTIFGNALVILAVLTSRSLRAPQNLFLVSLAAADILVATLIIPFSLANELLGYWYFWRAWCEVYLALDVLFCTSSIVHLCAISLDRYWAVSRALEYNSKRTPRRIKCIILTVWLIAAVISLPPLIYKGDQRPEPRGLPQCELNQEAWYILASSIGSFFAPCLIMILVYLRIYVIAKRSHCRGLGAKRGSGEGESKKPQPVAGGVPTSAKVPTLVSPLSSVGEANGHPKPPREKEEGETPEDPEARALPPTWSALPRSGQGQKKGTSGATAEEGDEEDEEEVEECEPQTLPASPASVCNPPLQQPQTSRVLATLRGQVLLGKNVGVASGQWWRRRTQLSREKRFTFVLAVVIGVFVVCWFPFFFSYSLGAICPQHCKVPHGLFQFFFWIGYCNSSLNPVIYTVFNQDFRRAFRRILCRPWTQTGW
T4 sequence (P22909 whole entry): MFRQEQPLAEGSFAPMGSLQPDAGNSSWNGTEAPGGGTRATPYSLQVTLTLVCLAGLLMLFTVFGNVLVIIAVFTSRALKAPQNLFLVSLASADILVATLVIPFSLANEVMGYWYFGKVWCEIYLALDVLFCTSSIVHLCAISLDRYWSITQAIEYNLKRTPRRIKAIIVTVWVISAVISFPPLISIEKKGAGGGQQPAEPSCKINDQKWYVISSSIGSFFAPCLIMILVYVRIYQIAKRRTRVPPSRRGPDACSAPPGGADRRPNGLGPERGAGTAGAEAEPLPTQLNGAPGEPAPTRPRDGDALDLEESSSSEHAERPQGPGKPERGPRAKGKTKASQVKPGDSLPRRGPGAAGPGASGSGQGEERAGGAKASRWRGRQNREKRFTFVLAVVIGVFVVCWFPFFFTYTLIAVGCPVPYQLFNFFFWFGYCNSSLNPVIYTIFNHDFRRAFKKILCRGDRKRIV
Description: Half-maximal inhibition of [3H]clonidine binding to Alpha-2 adrenergic receptor in rat frontal cortex homogenate

[11] = biological target: T5, Adrenergic receptor alpha-1 (Rattus norvegicus, UniProt P15823+P23944+P43140); format: tissue-based, Frontal cortex
T5 sequence (P15823 whole entry): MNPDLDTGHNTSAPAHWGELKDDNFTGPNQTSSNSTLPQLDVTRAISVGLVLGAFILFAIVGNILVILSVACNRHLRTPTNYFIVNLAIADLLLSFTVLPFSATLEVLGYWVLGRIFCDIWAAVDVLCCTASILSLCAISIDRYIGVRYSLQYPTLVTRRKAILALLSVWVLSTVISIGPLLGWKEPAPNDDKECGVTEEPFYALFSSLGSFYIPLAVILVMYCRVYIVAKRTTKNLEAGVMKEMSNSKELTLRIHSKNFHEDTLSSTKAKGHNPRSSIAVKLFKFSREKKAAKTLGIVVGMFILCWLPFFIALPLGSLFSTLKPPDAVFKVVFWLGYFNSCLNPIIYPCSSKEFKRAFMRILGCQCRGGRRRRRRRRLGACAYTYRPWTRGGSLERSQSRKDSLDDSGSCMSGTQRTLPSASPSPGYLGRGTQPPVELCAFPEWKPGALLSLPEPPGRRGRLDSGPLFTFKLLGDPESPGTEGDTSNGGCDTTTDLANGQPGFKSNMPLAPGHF
T5 sequence (P23944 whole entry): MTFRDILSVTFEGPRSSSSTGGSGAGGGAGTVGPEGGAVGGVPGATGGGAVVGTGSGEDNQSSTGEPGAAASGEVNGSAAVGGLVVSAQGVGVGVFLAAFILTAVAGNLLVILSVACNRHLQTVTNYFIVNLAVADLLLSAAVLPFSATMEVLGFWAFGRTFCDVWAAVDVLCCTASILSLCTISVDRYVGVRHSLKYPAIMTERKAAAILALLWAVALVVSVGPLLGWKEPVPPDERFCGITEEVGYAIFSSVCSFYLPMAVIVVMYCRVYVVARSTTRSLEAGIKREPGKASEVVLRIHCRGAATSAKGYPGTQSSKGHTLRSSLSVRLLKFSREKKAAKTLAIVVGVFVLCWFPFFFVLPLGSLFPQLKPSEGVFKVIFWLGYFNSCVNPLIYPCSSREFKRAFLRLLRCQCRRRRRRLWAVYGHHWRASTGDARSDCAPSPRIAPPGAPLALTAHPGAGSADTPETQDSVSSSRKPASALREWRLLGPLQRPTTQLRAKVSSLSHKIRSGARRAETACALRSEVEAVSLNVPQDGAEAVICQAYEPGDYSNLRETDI
T5 sequence (P43140 whole entry): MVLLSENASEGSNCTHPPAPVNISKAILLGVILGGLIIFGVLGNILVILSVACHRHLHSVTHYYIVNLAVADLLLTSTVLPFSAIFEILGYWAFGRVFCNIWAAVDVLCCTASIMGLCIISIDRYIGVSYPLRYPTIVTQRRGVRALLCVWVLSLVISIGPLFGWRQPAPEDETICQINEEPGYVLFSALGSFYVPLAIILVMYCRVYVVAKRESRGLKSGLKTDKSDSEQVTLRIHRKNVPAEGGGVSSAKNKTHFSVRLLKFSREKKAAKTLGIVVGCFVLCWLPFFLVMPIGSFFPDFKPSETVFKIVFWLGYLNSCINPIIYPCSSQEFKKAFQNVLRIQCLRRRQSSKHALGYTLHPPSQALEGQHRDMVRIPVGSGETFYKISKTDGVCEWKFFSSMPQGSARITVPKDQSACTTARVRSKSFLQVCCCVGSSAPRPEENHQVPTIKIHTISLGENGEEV
Description: Inhibition of [3H]-prazosin binding to Alpha-1 adrenergic receptor in rat frontal cortex homogenate

[12] = species: Rattus norvegicus; conditions: in vivo; remark: listed apart in the source
Description: Area under curve (AUC) value of Dopamine level after first treatment (7.4 uM/Kg) in dialysates collected from rat striatum.

[13] = species: Mus musculus; assay: animal or person; format: functional; conditions: sc, route subcutaneous
Description: Ability to antagonize apomorphine-induced climbing in mice after administration of 0.10 mg/kg dose subcutaneously

[14] = species: Rattus norvegicus; conditions: in vivo; remark: listed apart in the source
[15] = species: Mus musculus; assay: animal or person; format: functional; conditions: dose 7.9 mg/kg, route oral
[16] = species: Mus musculus; assay: animal or person; format: functional; conditions: sc, dose 0.19 mg/kg, route subcutaneous
[17] = species: Rattus norvegicus; conditions: in vivo; remark: listed apart in the source
[18] = species: Rattus norvegicus; conditions: in vivo; remark: listed apart in the source
[19] = species: Mus musculus; assay: animal or person; format: functional; conditions: sc, route subcutaneous; remark: listed apart in the source
[20] = species: Rattus norvegicus; conditions: in vivo; remark: listed apart in the source
Description: Area under curve (AUC) value of HVA level after total treatment in dialysates collected from rat striatum.

[21] = biological target: T6, 5-hydroxytryptamine receptor 2A (Rattus norvegicus, UniProt P14842); assay: biochemical
T6 sequence (P14842 whole entry): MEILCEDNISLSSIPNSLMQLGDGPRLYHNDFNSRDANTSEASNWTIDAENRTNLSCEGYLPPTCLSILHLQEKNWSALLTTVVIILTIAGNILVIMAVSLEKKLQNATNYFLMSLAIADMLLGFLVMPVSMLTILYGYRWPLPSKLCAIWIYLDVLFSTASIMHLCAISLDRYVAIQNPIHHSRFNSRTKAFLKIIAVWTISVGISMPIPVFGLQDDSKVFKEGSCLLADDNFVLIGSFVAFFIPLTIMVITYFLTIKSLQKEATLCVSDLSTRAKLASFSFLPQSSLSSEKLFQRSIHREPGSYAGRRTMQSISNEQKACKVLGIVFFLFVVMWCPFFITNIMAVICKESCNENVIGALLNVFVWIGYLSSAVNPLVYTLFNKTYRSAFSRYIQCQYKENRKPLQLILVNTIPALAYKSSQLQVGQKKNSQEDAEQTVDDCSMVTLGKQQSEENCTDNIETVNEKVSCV

[22] = biological target: T6, 5-hydroxytryptamine receptor 2A; assay: biochemical; format: tissue-based, Cerebral cortex
[23] = biological target: Histamine H1 receptor (Rattus norvegicus, UniProt P31390); assay: biochemical; format: tissue-based, Frontal cortex
Sequence of Histamine H1 receptor (P31390 whole entry): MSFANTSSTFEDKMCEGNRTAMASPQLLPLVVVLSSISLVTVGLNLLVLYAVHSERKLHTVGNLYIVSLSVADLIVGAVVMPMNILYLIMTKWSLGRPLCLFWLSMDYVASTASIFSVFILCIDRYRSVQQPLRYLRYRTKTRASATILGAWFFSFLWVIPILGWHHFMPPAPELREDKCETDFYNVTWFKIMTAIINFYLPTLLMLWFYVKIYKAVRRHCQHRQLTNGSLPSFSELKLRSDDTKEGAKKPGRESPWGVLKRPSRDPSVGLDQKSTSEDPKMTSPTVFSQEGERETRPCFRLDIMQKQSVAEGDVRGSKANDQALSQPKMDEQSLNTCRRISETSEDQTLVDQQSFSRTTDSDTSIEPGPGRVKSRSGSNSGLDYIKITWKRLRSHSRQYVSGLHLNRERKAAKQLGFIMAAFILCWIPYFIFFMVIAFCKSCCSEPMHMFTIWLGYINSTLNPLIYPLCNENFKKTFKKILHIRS
Description: Half-maximal inhibition of [3H]pyrilamine binding to Histamine H1 receptor in rat frontal cortex homogenate

[24] = biological target: T1, D(3) dopamine receptor; design: species or system Tissue; remark: listed apart in the source
[25] = biological target: T1, D(3) dopamine receptor; design: species or system Tissue; remark: listed apart in the source
Description: Half-maximal inhibition of [3H]7-OH-DPAT binding to Dopamine receptor D3 in rat tissue homogenate

[26] = species: Mus musculus; assay: animal or person; format: functional; conditions: sc
Description: Effective dose required to antagonize apomorphine-induced catalepsy in mice after administration of >100 mg/kg dose subcutaneously

[27] = species: Mus musculus; assay: animal or person; format: functional; conditions: sc, dose 0.83 mg/kg, route subcutaneous
[28] = species: Mus musculus; assay: animal or person; format: functional; conditions: sc, dose 1.5 mg/kg, route subcutaneous
[29] = biological target: T2, D(1A) dopamine receptor; remark: listed apart in the source

T2 sequence (P18901 whole entry): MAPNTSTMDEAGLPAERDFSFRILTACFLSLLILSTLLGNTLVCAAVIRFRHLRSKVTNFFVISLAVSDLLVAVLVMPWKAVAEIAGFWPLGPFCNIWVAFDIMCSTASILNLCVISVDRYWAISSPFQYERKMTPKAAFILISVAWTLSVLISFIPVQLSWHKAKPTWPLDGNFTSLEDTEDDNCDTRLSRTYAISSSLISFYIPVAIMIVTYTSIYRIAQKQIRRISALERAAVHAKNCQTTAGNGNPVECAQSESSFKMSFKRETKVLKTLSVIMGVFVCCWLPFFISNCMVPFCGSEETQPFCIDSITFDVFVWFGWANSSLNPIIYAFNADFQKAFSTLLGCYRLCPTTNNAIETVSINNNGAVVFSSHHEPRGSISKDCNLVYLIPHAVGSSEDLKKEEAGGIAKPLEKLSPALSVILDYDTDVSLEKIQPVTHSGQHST
T1 sequence (P19020 whole entry): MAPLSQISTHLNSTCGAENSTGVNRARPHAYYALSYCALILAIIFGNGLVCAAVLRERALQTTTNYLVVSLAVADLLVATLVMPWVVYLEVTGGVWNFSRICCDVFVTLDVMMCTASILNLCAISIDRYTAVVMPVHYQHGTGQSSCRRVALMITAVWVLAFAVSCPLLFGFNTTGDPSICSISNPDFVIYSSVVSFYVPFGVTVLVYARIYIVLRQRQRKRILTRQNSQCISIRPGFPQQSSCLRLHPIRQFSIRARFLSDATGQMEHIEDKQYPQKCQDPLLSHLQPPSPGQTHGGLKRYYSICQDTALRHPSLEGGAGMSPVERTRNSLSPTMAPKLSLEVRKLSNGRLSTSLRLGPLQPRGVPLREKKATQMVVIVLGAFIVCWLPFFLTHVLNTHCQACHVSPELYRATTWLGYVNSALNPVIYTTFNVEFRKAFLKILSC

CN1CCN([C@H]2Cn3cccc3Sc3ccc(Cl)cc32)CC1
Ki [1]: 1.85 nM

CN1CCN([C@H]2Cc3ccccc3Sc3ccc(Cl)cc32)CC1
Ki [2]: 1.9 nM | Ki [1]: 0.4 nM

CN1CCN([C@@H]2Cn3cccc3Sc3ccc(Cl)cc32)CC1
AUC [3]: 133 | AUC [4]: 174.4 | AUC [5]: 156.3 | ED50 [6]: 14.3 µmol/kg | Ki [7]: 287 nM | AUC [8]: 145.4 | ED50 at […] [9]: 115 µmol/kg | Ki [10]: 209 nM | Ki [11]: 0.82 nM | AUC [12]: 133.6 | ED50 [13]: 0.24 µmol/kg | AUC [14]: 179 | ED50 at […] [15]: 19.5 µmol/kg | Ki [1]: 110 nM | ED50 at […] [16]: 0.48 µmol/kg | AUC [17]: 20.35 | AUC [18]: 193.8 | ED50 [19]: 45 µmol/kg | AUC [20]: 163.4

OCCN1CCN(C2Cn3cccc3Sc3ccc(Br)cc32)CC1 (racemic)
Ki [2]: 20 nM | Ki [21]: 23 nM | Ki [1]: 10 nM

CN1CCCN(C2Cn3cccc3Sc3ccc(Cl)cc32)CC1 (racemic)
Ki [22]: 53.7 nM | Ki [2]: 53 nM | Ki [21]: 16 nM | Ki [1]: 58 nM

CCN1CCN(C2Cn3cccc3Sc3ccc(Cl)cc32)CC1 (racemic)
Ki [2]: 18.2 nM | Ki [21]: 5.8 nM | Ki [1]: 4.5 nM

OCCN1CCN(C2Cn3cccc3Sc3ccc(F)cc32)CC1 (racemic)
Ki [23]: 7.1 nM | Ki [7]: 6300 nM | Ki [24]: 13 nM | Ki [22]: 74.1 nM | Ki [2]: 72 nM | Ki [11]: 2.9 nM | Ki [21]: 7.1 nM | Ki [25]: 13.2 nM

OCCN1CCN(C2Cn3cccc3Sc3ccc(Cl)cc32)CC1 (racemic)
Ki [2]: 27 nM | Ki [21]: 8.8 nM | Ki [1]: 3.6 nM

CN1CCN(C2Cn3cccc3Sc3ccc(Br)cc32)CC1 (racemic)
Ki [2]: 14 nM | Ki [21]: 12 nM

CCN1CCN(C2Cn3cccc3Sc3ccc(F)cc32)CC1 (racemic)
Ki [23]: 4.3 nM | Ki [7]: 2340 nM | Ki [24]: 18 nM | Ki [2]: 31 nM | Ki [11]: 0.4 nM | Ki [21]: 4.3 nM | Ki [25]: 18.2 nM

CCN1CCN(C2Cn3cccc3Sc3ccc(Br)cc32)CC1 (racemic)
Ki [2]: 14 nM | Ki [21]: 23 nM | Ki [1]: 7.4 nM

CN1CCN([C@@H]2Cn3cccc3Sc3ccccc32)CC1 (stereo in doubt; (+)-6a)
ED50 [26]: 269 µmol/kg | ED50 at […] [27]: 2.8 µmol/kg | Ki [23]: 9.5 nM | Ki [7]: 2270 nM | Ki [11]: 18.8 nM | ED50 at […] [28]: 5.2 µmol/kg

CN1CCN([C@H]2Cn3cccc3Sc3ccc(F)cc32)CC1 (stereo in doubt; (+)-6b)
Ki [11]: 12 nM

CN1CCN([C@H]2Cn3cccc3Sc3ccc(F)cc32)CC1 (stereo in doubt; (-)-6b)
Ki [7]: > 10000 nM | Ki [11]: 4.5 nM

CSc1ccc2c(c1)C(N1CCN(C)CC1)Cc1ccccc1S2 (stereo not given) [METITEPINE]
Ki [29]: 2 nM
